Patent publication US20110091387A1, “METHODS AND COMPOSITIONS FOR REDUCING SKIN DAMAGE” (THE GENERAL HOSPITAL CORPORATION, priority 2007, published 2011)
Counter-ions that a name gives are not always drawn.

tested on: RhoE promoter; test: RhoE promoter luc2 luciferase reporter screen for inducers of RhoE expression; type: cell-based; conditions: Table 1; luminescence at 24 hours, two replicates per compound
Protocol: To isolate compounds that can activate RhoE pathway in keratinocytes and protect against UVB exposure, a robust and sensitive chemical genetics approach was developed for the identification of small molecules that induce RhoE expression. Briefly, a reporter construct was created that included the RhoE promoter operatively linked to the luc2 luciferase reporter gene (FIG. 1A). Stable cell lines were produced that expressed the reporter construct, and the cells were plated in 384 well plates at ˜10,000 cells per well. The library test compounds were added to the plated cells at two replicates per compound, and the cells were incubated with the compounds for 24 hours. Luminescence was measured at 24 hours using a plate reader. The data were analyzed using Spotfire.

| SMILES | Composite Z value (induction of RhoE expression) |
| --- | --- |
| C=C1C(=O)O[C@@H]2C[C@@]3(C)CCC[C@H](C)C3=C[C@H]12 [Helenine] | 2.473 |
| O=c1cc(-c2cc(O)c(O)c(O)c2)oc2cc(O)cc(O)c12 [Hieracin] | 3.8448 |
| COc1cc(-c2coc3cc(O[C@@H]4O[C@H](CO)[C@@H](O)[C@H](O)[C@H]4O)c(OC)c(O)c3c2=O)cc(O)c1OC [Iridin] | 2.7194 |
| O=c1c(O)c(-c2ccc(O)cc2)oc2cc(O)cc(O)c12 [Kaempferol] | 6.2959 |
| O=c1cc(-c2ccc(O)c(O)c2)oc2cc(O)cc(O)c12 [Luteolin] | 2.3069 |
| Oc1ccc2c(c1)OC[C@H]1c3cc4c(cc3O[C@@H]21)OCO4 [Maackiain] | 2.2116 |
| COC(=O)Nc1nc2ccc(SC(C)C)cc2[nH]1 [Methiazole] | 2.2516 |
| Oc1ccc(OCc2ccccc2)cc1 [Monobenzone, reference compound] | 2.1629 |
| O=C1C[C@@H](c2ccc(O)cc2)Oc2cc(O)cc(O)c21 [Naringenin] | 2.3231 |
| COc1ccc(CC(=O)c2ccc(O)cc2O)cc1 [Ononetin] | 2.6414 |
| CCCOc1ccc2nc(NC(=O)OC)[nH]c2c1 [Oxibendazole, reference compound] | 2.2003 |
| CC(C)N(C(=O)CCl)c1ccccc1 [Propachlor] | 2.8556 |
| CCN(CC)CCCC(C)Nc1c2ccc(Cl)cc2nc2ccc(OC)cc12 (stereo not drawn) [Quinacrine dihydrochloride dihydrate, reference compound] | 2.324 |
| COc1cc(O)c2c(=O)c(O)c(-c3ccc(O)c(O)c3)oc2c1 [Rhamnetin] | 2.1577 |
| CNc1ccccc1C(=O)N1CCc2c([nH]c3ccccc23)C1=O [Rhetsinine] | 3.357 |
| c1ccc2[nH]c(-c3cscn3)nc2c1 [Tiabendazole, reference compound] | 3.5924 |
| CCN(CC)CCOc1ccc2c(c1)C(=O)c1cc(OCCN(CC)CC)ccc1-2 [Tilorone, reference compound] | 3.4862 |
| CC1=C(/C=C/C(C)=C/C=C/C(C)=C/C(=O)O)C(C)(C)CCC1 [Tretinoin, reference compound] | 2.2603 |

| SMILES | Composite Z value (induction of RhoE expression) |
| --- | --- |
| O=c1c2ccccc2oc2ccccc12 [Xanthone] | 3.79 |
| CC1(C)C=Cc2cc3ccc(=O)oc3cc2O1 [Xanthyletin] | 2.6831 |
| COc1ccc(-c2cc(=O)c3c(OC(C)=O)cc(OC(C)=O)cc3o2)cc1 [acacetin diacetate] | 3.977 |
| CC(=O)Oc1ccc(-c2cc(=O)c3c(OC(C)=O)cc(OC(C)=O)cc3o2)cc1 [apigenin triacetate] | 4.6992 |
| Cl.NNCc1ccccc1 [benzylhydrazine hydrochloride] | 2.3759 |
| COc1ccc(-c2coc3cc(OC(C)=O)cc(OC(C)=O)c3c2=O)cc1 [biochanin a diacetate] | 3.6564 |
| COc1ccc(-c2coc3cc(O)cc(O)c3c2=O)cc1 [biochanin a] | 3.2901 |
| COc1cc(OC)c2c(=O)cc(-c3ccccc3)oc2c1 [chrysin dimethyl ether] | 3.477 |
| COc1ccc2c(=O)c(-c3cc4c(cc3OC)OCO4)coc2c1 [cuneatin methyl ether] | 2.23 |
| C=CC(C1=CC(=O)C(OC)=CC1=O)c1ccc(O)cc1 (stereo not drawn) [dalbergione, 4-methoxy-4′-hydroxy-] | 2.3862 |
| CC[C@H]1OC(=O)[C@H](C)[C@@H](O[C@H]2C[C@@](C)(OC)[C@@H](O)[C@H](C)O2)[C@H](C)[C@@H](O[C@@H]2O[C@H](C)C[C@H](N(C)C)[C@H]2O)[C@](C)(O)C[C@@H](C)C(=O)[C@H](C)[C@@H](O)[C@]1(C)O [erythromycin stearate, reference compound] | 3.1488 |
| COc1cc(O)c(C(=O)/C=C/c2ccccc2)c(OC)c1 [flavokawain b] | 3.604 |
| NNc1nncc2ccccc12 [hydralazine hydrochloride, reference compound] | 2.3583 |
| COc1ccc(C2CC(=O)c3ccc(OC)cc3O2)cc1 (stereo not drawn) [liquiritigenin dimethyl ether] | 4.6362 |
| CC(C)C[C@H](NC(=O)OCC1c2ccccc2-c2ccccc21)C(=O)O [n-(9-fluorenylmethoxycarbonyl)-1-leucine] | 2.8734 |
| COc1ccc2c(c1)OCC(=Cc1ccc(O)c(O)c1)C2=O [sappanone a 7-methyl ether] | 2.4579 |
| COC(=O)C(C)c1ccc(C(=O)c2cccs2)cc1 (stereo not drawn) [suprofen methyl ester] | 3.2205 |

same assay, conditions: Table 2; luminescence at 24 hours, two replicates

| SMILES | Composite Z |
| --- | --- |
| O=c1c(O)c(-c2ccc(O)cc2)oc2cc(O)cc(O)c12 [Kaempferol] | 6.2959 |

tested on: RhoE; test: Western blot of RhoE and p53 expression after kaempferol treatment; type: cell-based; conditions: FIG. 3; relative to p53 expression
From the text: FIG. 3 is a Western blot depicting RhoE and p53 expression following treatment with the indicated amounts of kaempferol.

| SMILES | RhoE expression (Western blot) |
| --- | --- |
| O=c1c(O)c(-c2ccc(O)cc2)oc2cc(O)cc(O)c12 [Kaempferol] | able to activate RhoE expression in a p53-independent manner |

tested on: UVB damaged mouse skin; test: UVB damaged mouse skin treated topically (TUNEL, CPD, phospho-H2AX, RhoE staining); type: in vivo; conditions: 0.5 mM in 50 μl DMSO; UVB 120 mJ/cm^2; 16 hours after exposure; vs DMSO; FIG. 5
Protocol: Next, it was investigated whether kaempferol has any protective effect and or DNA repair potential on UVB damaged mouse skin. The dorsal hair of 8-week-old, C57BL/6 mice was trimmed and fine hair was removed by application of a hair-remover, 2 days before UVB exposure. Restrained mice were UVB irradiated at 120 mJ/cm^2 and treated with 0.5 mM kaempferol in 50 μl DMSO or DMSO control. The skin was removed from euthanized mice at various times after UVB exposure, fixed immediately in 4% neutral buffered paraformaldehyde, embedded in OCT, and sectioned at 8-μm thickness. Apoptotic cells were detected in skin sections harvested 16 hours after exposure to UVB, by the terminal nucleotidyl transferase-mediated nick end labeling (TUNEL) assay (Roche Applied Science, Germany) according to the manufacturer's instructions. […] The levels of an activated form of H2AX (Ser139) that is known to be activated and bound at the sites of DNA damage in response to UVB damage were also measured by staining with Anti-Phospho-H2AX (Ser139) antibodies (Upstate Cell Signaling Solutions, New York).

| SMILES | Apoptosis in epidermis (TUNEL) |
| --- | --- |
| O=c1c(O)c(-c2ccc(O)cc2)oc2cc(O)cc(O)c12 [Kaempferol] | inhibited apoptosis induced by UVB damage in epidermis |

same assay, conditions: 0.5 mM; UVB 120 mJ/cm^2; FIGS. 6A-6C

| SMILES | Cyclobutane pyrimidine dimer (CPD) formation in epidermis (TDM-2 staining) |
| --- | --- |
| O=c1c(O)c(-c2ccc(O)cc2)oc2cc(O)cc(O)c12 [Kaempferol] | suppressed pyrimidine dimmer formation |

same assay, conditions: 0.5 mM; UVB 120 mJ/cm^2; FIGS. 7A-7C

| SMILES | Levels of activated form of H2AX (Ser139) in skin |
| --- | --- |
| O=c1c(O)c(-c2ccc(O)cc2)oc2cc(O)cc(O)c12 [Kaempferol] | significantly decreased |

same assay, conditions: 0.5 mM; UVB exposure; FIG. 8

| SMILES | RhoE expression in suprabasal area of epidermis |
| --- | --- |
| O=c1c(O)c(-c2ccc(O)cc2)oc2cc(O)cc(O)c12 [Kaempferol] | enhanced |

tested on: HaCaT human keratinocyte cells; test: UVB-induced cell death in HaCaT keratinocytes; type: cell-based; conditions: 1 and 2.5 μM; UVB 30 mJ/cm^2; 24 hours later; FIG. 4
Protocol: To determine whether RhoE inducing compounds have the protective effect on the UVB damage-mediated cell death, kaempferol-treated (1 and 2.5 μM) HaCaT human keratinocyte cells were exposed to UVB (30 mJ/cm^2), and 24 hours later cell death rate was examined (FIG. 4).

| SMILES | UVB-induced cell death rate |
| --- | --- |
| O=c1c(O)c(-c2ccc(O)cc2)oc2cc(O)cc(O)c12 [Kaempferol] | suppression of UVB-induced cell death |
